US8101170B2, “Probiotic health or fitness promoting human or animal foodstuff and/or drinking water additive and use thereof” (Erber Aktiengesellschaft, priority 2005, dated 2012)
Where “and” joins values, the source holds several entries; their conditions need not be identical. Identical values can stand only once. Like-named read-outs stand apart in the source and are kept apart here.

Tests used:
Format in all cases: cell-based
Salmonella choleraesuis = assay: Agar plate assay, inhibition of pathogenic germs by CE test germs
Campylobacter jejuni = assay: as above
Clostridium perfringens = tested on: Clostridium perfringens
E. coli = assay: Agar plate assay, inhibition of pathogenic germs by CE test germs

Substance	inhibition zone to test germ ratio, Salmonella choleraesuis (Salmonella choleraesuis; MRS agar)	inhibition zone to test germ ratio, Campylobacter jejuni (Campylobacter jejuni; MRS agar)	inhibition zone to test germ ratio, Clostridium perfringens (Clostridium perfringens)	inhibition zone to test germ ratio, Salmonella choleraesuis (Salmonella choleraesuis)	inhibition zone to test germ ratio, Campylobacter jejuni (Campylobacter jejuni)	inhibition zone to test germ ratio, E. coli (E. coli)
Lactobacillus reuteri [DSM 16350]	1.60	1.36	2.12			
Lactobacillus salivarius ssp. salivarius [DSM 16351]	1.46	1.50	2.05			
Enterococcus faecium [DSM 16211]	1.37	1.28	1.43			
Bifidobacterium animalis [DSM 20104]	0.65	0.31	1.42			
Pediococcus acidilactici [DSM 20284]	1.10	1.32	1.35			
Lactobacillus reuteri [DSM 20016]	1.20	1.35	1.54			
Lactobacillus salivarius [DSM 20555]	1.09	1.41	1.63			
Enterococcus faecium [NCIMB 10415]			1.31	1.20	1.22	1.37 and 1.35
